Experimental data published in patent US8361998B2, “Compounds and their use as IKACh blockers” (AstraZeneca AB, priority 2010, dated 2013).

target: T1, human cardiac ion channel proteins hKir3.1/Kir3.4 (Homo sapiens, UniProt P48544+P48549); test: Atomic Absorption Screening (AAS) Rb efflux assay of hKir3.1/Kir3.4 block, carbachol/high K+ stimulated, 10-pt or 7-pt CR; assay type: cell-based; conditions: 7-pt CR (0.037 to 27 μmol/L), AAS Rb efflux, CHO-K1 cells expressing hKir3.1/Kir3.4; mean of >3 replicates; read-out: IKACh IC50 7-pt CR, AAS
T1 construct: expressed in transfected cells
T1 sequence (P48549 1-501): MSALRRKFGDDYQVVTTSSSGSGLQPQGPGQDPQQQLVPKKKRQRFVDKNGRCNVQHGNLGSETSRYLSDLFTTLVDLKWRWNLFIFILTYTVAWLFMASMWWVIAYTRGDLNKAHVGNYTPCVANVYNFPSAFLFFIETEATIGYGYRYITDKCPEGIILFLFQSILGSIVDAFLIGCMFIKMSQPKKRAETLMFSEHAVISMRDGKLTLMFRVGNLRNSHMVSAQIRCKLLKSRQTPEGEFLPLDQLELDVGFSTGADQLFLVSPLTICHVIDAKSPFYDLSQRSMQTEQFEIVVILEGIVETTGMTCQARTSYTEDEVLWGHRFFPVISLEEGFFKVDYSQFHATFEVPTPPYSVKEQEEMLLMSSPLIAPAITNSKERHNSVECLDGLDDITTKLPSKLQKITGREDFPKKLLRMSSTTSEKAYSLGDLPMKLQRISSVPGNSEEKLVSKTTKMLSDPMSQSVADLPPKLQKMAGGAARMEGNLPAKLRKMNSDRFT
T1 sequence (P48544 1-419): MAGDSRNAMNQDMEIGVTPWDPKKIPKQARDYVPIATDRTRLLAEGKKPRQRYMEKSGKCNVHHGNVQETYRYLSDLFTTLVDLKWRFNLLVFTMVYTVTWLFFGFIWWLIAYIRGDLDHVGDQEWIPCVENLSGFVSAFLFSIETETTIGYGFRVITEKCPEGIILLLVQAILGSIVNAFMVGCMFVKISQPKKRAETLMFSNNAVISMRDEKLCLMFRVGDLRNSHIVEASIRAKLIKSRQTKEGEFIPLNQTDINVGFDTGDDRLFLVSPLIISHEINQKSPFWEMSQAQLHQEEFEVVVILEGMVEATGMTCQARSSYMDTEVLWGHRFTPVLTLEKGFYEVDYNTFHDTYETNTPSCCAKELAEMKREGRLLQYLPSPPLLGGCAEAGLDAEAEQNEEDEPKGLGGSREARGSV
How it was run: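 CHO-K1 cells stably co-expressing human Kir3.1/Kir3.4 were Rb-loaded for 3 h at 37° C, preincubated with compound 5 min at RT, then stimulated 10 min with 10 μM carbachol plus 20 mM KCl (final). Supernatant Rb was measured by atomic absorption. Compounds ran at 0.003–67 μmol/L (10-pt) or 0.037–27 μmol/L (7-pt), threefold dilutions; IC50s are means of >4 or >3 replicates respectively.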

Row | IC50 [µM] | Structure (SMILES)
1 | 0.9 | CC(C)[C@@H](CN1CCCC1)N(C)C(=O)c1ccc(Cl)cc1F [Example 16.53, (S)-4-Chloro-2-fluoro-N-methyl-N-(3-methyl-1-(pyrrolidin-1-yl)butan-2-yl)benzamide]
2 | 3.7 | CC(C)[C@@H](CN1CC[C@H](O)C1)N(C)C(=O)c1ccc(F)cc1Cl [Example 10.1, (3S)-1-((S)-2-(2-Chloro-4-fluoro-N-methylbenzamido)-3-methylbutyl)-3-hydroxypyrrolidinium 2,3-dihydroxysuccinate]
3 | 11 | CC(C)[C@@H](CN1CCCCC1)N(C)C(=O)c1ccc(Br)c(F)c1 [Example 16.36, (S)-4-Bromo-3-fluoro-N-methyl-N-(3-methyl-1-(piperidin-1-yl)butan-2-yl)benzamide]
4 | 3.9 | CC(C)[C@@H](CN1CC[C@H](O)C1)N(C)C(=O)c1cccc(OC(F)(F)F)c1 [Example 16.42, N-[(1S)-1-{[(3S)-3-Hydroxypyrrolidin-1-yl]methyl}-2-methylpropyl]-N-methyl-3-(tri-fluoromethoxy)benzamide]

Row | Structure (SMILES) | IC50 [µM]
5 | CC(C)[C@@H](CN1CCCC1)N(C)C(=O)c1cccc(Cl)c1F [Example 16.17, (S)-3-Chloro-2-fluoro-N-methyl-N-(3-methyl-1-(pyrrolidin-1-yl)butan-2-yl)benzamide] | 1.2

same assay, conditions: 10-pt CR (0.003 to 67 μmol/L), AAS Rb efflux, CHO-K1 cells expressing hKir3.1/Kir3.4; mean of >4 replicates; read-out: IKACh IC50 10-pt CR, AAS

Row | IC50 [µM] | Structure (SMILES)
6 | 7.2 | COc1cc(C(=O)N(C)[C@H](CN2CCC(OC)CC2)C(C)C)ccc1C [Example 3.11, (S)-3-Methoxy-N-(1-(4-methoxypiperidin-1-yl)-3-methylbutan-2-yl)-N,4-dimethylbenzamide]
7 | 6.8 | CN(C(=O)c1ccc(Br)cc1)[C@H](CN1CCC1)C1CC1 [Example 4.3, (S)-N-(2-(Azetidin-1-yl)-1-cyclopropylethyl)-4-bromo-N-methylbenzamide]
8 | 12 | CC[C@H](C)[C@@H](CN1CC(O)C1)N(C)C(=O)c1ccccc1 [Example 29.4, N-((2S,3S)-1-(3-Hydroxyazetidin-1-yl)-3-methylpentan-2-yl)-N-methylbenzamide]
9 | 11 | Cc1cc(C(=O)N(C)[C@H](CN2CC[C@@H](O)C2)C(C)C)ccc1F [Example 17.3, 4-Fluoro-N—((S)-1-((R)-3-hydroxypyrrolidin-1-yl)-3-methylbutan-2-yl)-N,3-dimethylbenzamide]
10 | 6.1 | CC(C)[C@@H](CN1CC[C@H](O)C1)N(C)C(=O)c1ccc(F)cc1Cl [Example 10.1, (3S)-1-((S)-2-(2-Chloro-4-fluoro-N-methylbenzamido)-3-methylbutyl)-3-hydroxypyrrolidinium 2,3-dihydroxysuccinate]
11 | 1.2 | CC(C)[C@@H](CN1CCC1)N(C)C(=O)c1ccc(F)c(C(F)(F)F)c1 [Example 1.11, (S)-N-(1-(Azetidin-1-yl)-3-methylbutan-2-yl)-4-fluoro-N-methyl-3-(trifluoromethyl)benzamide]
12 | 0.16 | CN(C(=O)c1ccc(F)c(Cl)c1)C(CN1CC(O)C1)C1CCCC1 (single isomer, unassigned) [32.7, isomer 2]
13 | 3.2 | COC1CCN(C[C@H](C(C)C)N(C)C(=O)c2ccc(Br)cc2)CC1 [Example 3.6, (S)-4-Bromo-N-(1-(4-methoxypiperidin-1-yl)-3-methylbutan-2-yl)-N-methylbenzamide]
14 | 0.34 | COc1ccc(C(=O)N(C)[C@H](CN2CC(O)C2)C2CCC2)cc1C [Example 39.9, (S)—N-(1-Cyclobutyl-2-(3-hydroxyazetidin-1-yl)ethyl)-4-methoxy-N,3-dimethylbenzamide]
15 | 3.6 | CC(C)[C@@H](CN1CC(F)C1)N(C)C(=O)c1ccc(F)c(C(F)(F)F)c1 [Example 1.9, (S)-4-Fluoro-N-(1-(3-fluoroazetidin-1-yl)-3-methyl-butan-2-yl)-N-methyl-3-(trifluoromethyl)benzamide]
16 | 0.22 | CCc1ccc(C(=O)N(C)[C@H](CN2CC(O)C2)[C@@H](C)CC)cc1 [Example 29.3, 4-Ethyl-N-((2S,3S)-1-(3-hydroxyazetidin-1-yl)-3-methylpentan-2-yl)-N-methylbenzamide]
17 | 0.12 | CCCC[C@@H](CN1CC(O)C1)N(C)C(=O)c1ccc(Cl)cc1 [Example 33.1, (S)-4-chloro-N-(1-(3-hydroxyazetidin-1-yl)hexan-2-yl)-N-methylbenzamide]
18 | 4 | Cc1cc(C(=O)N(C)[C@H](CN2CCC(O)CC2)C(C)C)ccc1F [Example 24, (S)-4-Fluoro-N-(1-(4-hydroxypiperidin-1-yl)-3-methylbutan-2-yl)-N,3-dimethylbenzamide]
19 | 0.83 | CSc1ccc(C(=O)N(C)[C@@H](CC(C)C)CN2CC(O)C2)cc1 [Example 38.8, N-[(2S)-1-(3-Hydroxyazetidin-1-yl)-4-methylpentan-2-yl]-N-methyl-4-(methylsulfanyl)benzamide]
20 | 11 | CN(C(=O)c1ccc(F)cc1)[C@@H](CN1CC(O)C1)C1CCC1 [Example 35.5, N-[(1R)-1-Cyclobutyl-2-(3-hydroxyazetidin-1-yl)ethyl]-4-fluoro-N-methylbenzamide]
21 | 2 | CC[C@@H](CN1CC(O)C1)N(C)C(=O)c1ccc(F)c(C)c1 [Example 8.17, (S)-4-Fluoro-N-(1-(3-hydroxyazetidin-1-yl)butan-2-yl)-N,3-dimethylbenzamide]
22 | 7.3 | C[C@@H](CN1CC(O)C1)N(C)C(=O)c1ccc(Br)cc1 [Example 41, (S)-4-Bromo-N-(1-(3-hydroxyazetidin-1-yl)propan-2-yl)-N-methylbenzamide]
23 | 3.6 | Cc1cc(C(=O)N(C)[C@H](CN2CCCC2)C2CC2)ccc1F [Example 3.13, (S)-N-(1-Cyclopropyl-2-(pyrrolidin-1-yl)ethyl)-4-fluoro-N,3-di-methylbenzamide]
24 | 12 | CC(C)[C@@H](CN1CC[C@@H](O)C1)N(C)C(=O)c1ccc(F)c(Cl)c1 [Example 17.6, 3-Chloro-4-fluoro-N—((S)-1-((R)-3-hydroxypyrrolidin-1-yl)-3-methylbutan-2-yl)-N-methylbenzamide]

Row | Structure (SMILES) | IC50 [µM]
25 | CC[C@H](C)[C@@H](CN1CCCC1)N(C)C(=O)c1ccc(Cl)cc1Cl [Example 2.6, 2,4-Dichloro-N-methyl-N-((2S,3S)-3-methyl-1-(pyrrolidin-1-yl)pentan-2-yl)benzamide] | 2
26 | Cc1cc(C(=O)N(C)[C@H](CN2CCCC2)[C@@H](C)OC(C)(C)C)ccc1F [Example 14, N-((2R,3R)-3-Tert-butoxy-1-(pyrrolidin-1-yl)butan-2-yl)-4-fluoro-N,3-dimethylbenzamide] | 16
27 | CN(C(=O)c1ccc(Cl)c(Cl)c1)[C@H](CN1CCCC1)C(C)(C)C [Example 2.1, (S)-3,4-Dichloro-N-(3,3-dimethyl-1-(pyrrolidin-1-yl)butan-2-yl)-N-methylbenzamide] | 11
28 | CN(C(=O)c1ccc(Cl)cc1)[C@H](CN1CCC1)C1CC1 [Example 4.2, (S)-N-(2-(Azetidin-1-yl)-1-cyclopropylethyl)-4-chloro-N-methylbenzamide] | 2.8
29 | Cc1ccc(C(=O)N(C)[C@H](CN2CCC2)C2CC2)cc1C [Example 9.10, N-[(1S)-2-(azetidin-1-yl)-1-cyclopropylethyl]-N,3,4-trimethylbenzamide] | 2.1

same assay, conditions: printed as IC50 >67 μM in the 10-pt CR assay or IC50 >27 μM in the 7-pt CR assay; assay format per compound not stated; read-out: IC50

Row | IC50 [µM] | Structure (SMILES)
30 | > 27 | CC(C)[C@@H](CN1CCC(F)(F)C1)N(C)C(=O)c1ccc(Cl)cc1 [(S)-4-Chloro-N-(1-(3,3-difluoropyrrolidin-1-yl)-3-methylbutan-2-yl)-N-methylbenzamide]
31 | > 27 | CC(C)[C@@H](CN1CCCCC1)N(C)C(=O)c1ccc(OC(F)(F)F)cc1 [N-Methyl-N-[(1S)-2-methyl-1-(piperidin-1-ylmethyl)propyl]-4-(trifluoromethoxy)benzamide]
